Consider two molecules from patent US6703212B1, “Methods and kits for diagnosing Alzheimer's disease from a blood sample” (priority 1997, dated 2004).

The subject of the experiment is PKC. The experiment in a line: Fluorescence properties of fim-1 with liposomes, purified PKC and erythrocytes. The experiment is classed as biochemical. Conditions: fim-1 500 nM, Ex 485 nm. As for the experimental part:
Liposomes prepared from lipidic extracts of brain and a commercial preparation of purified a PKC are used, then erythrocytes are added.
This preparation is incubated for 20 minutes at ambient temperature, in the presence of fim-1 (500 nM) in a PBS buffer (150 mM NaCl, 10 mM NaHPO4, 5 mM D-glucose, 500 μm CaCl2, pH 7.4.
After washing, centrifugation and resuspension in PBS 1/150, the fluorescence emission spectrum is recorded between […], with an excitation wavelength of 485 nm.
The spectrum obtained is standardized relative to the fluorescence intensity measured with the probe alone, then broken down into the 3 elementary gaussian distributions represented in FIG. 1. An emission maximum is noted at 518, 535 and 586 nm respectively. The interactions between fim-1 and the membrane lipids as well as the PKC is expressed by a slight shift of the spectrum between […] for the lipids and an increase in fluorescence between 510 and 530 nm, and beyond 570 nm for the PKC.

Regarding `CCCCCCCCCCCCCC(=O)O[C@@H]1[C@@H](C)[C@@]2(O)[C@@H](C=C(CO)C[C@]3(O)C(=O)C(C)=C[C@@H]23)[C@@H]2C(C)(C)[C@]12OC(C)=O` [phorbol ester, phorbol myristate acetate], the “increase of quantal yield of fim-1 fluorescence (factor)” value (in the presence of activator) is 5000.
`CN[C@@H]1C[C@H]2O[C@@](C)([C@@H]1OC)n1c3ccccc3c3c4c(c5c6ccccc6n2c5c31)C(=O)NC4` [staurosporine]: for the setting “addition of inhibitor”, the “effect on fluorescence intensity of fim-1” value is “inhibition in the fluorescence intensity”.
